Experimental data from ChEMBL document CHEMBL1932964, “Lead optimisation of pyrazoles as novel FPR1 antagonists” (Bioorg Med Chem Lett, 2012).
Blank lines part the entries; values can stand above or below the compound they belong to.

Legend:
fMet-Leu-Phe receptor [1] = target: T1, fMet-Leu-Phe receptor (Homo sapiens, UniProt P21462); experiment: Antagonist activity at FPR1 in human neutrophils assessed as AB/fMLF-stimulated upregulation of CD11b expression preincubated for 30 mins before AB/FMLF challenge measured after 50 mins using FITC staining by flow cytometry; assay type: functional; conditions: read-out: pA2 (converted)
T1 sequence (P21462 whole entry): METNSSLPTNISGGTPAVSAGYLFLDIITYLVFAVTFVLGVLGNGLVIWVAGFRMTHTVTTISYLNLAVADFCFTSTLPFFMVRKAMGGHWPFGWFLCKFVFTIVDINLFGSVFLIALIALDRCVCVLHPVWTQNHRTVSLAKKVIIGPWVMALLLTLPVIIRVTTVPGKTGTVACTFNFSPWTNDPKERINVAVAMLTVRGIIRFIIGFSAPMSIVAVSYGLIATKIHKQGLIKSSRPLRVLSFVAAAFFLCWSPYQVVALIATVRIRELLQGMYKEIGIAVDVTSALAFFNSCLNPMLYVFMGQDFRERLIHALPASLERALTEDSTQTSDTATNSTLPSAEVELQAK

[2] = Volume of distribution at steady state in Sprague-Dawley rat at 2 mg/kg, iv; assay type: ADME, organism-based; design: dose 2 mg/kg, route intravenous; conditions: in vivo, read-out: Vdss
[3] = Oral bioavailability in Sprague-Dawley rat at 2 mg/kg; assay type: ADME, organism-based; conditions: in vivo
Cytochrome P450 2C9 = Cytochrome P450 2C9 (Homo sapiens, UniProt P11712); experiment: Inhibition of CYP2C9; assay type: ADME
[4] = Fraction unbound in Sprague-Dawley rat plasma; assay type: ADME, cell-free; conditions: Sprague-Dawley
Cytochrome P450 1A2 = target: T2, Cytochrome P450 1A2 (Homo sapiens, UniProt P05177); experiment: Inhibition of CYP1A2; assay type: ADME
T2 sequence (P05177 whole entry): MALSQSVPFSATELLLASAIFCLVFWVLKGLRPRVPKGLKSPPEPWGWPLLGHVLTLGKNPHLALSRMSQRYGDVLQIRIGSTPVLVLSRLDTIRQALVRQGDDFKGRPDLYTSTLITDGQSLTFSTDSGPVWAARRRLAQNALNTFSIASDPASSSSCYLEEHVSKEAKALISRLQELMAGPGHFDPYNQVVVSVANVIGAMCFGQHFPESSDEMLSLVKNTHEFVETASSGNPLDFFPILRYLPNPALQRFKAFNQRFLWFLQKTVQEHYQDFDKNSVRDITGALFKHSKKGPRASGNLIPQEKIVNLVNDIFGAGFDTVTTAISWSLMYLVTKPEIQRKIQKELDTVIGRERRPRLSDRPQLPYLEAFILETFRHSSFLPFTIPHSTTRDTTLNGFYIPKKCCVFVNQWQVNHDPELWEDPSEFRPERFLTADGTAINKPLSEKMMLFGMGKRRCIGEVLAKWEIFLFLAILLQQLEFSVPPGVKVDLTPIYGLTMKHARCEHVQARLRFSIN

Cytochrome P450 2D6 = Cytochrome P450 2D6 (Homo sapiens, UniProt P10635); experiment: Inhibition of CYP2D6; assay type: ADME
[5] = Distribution coefficient, log D of compound; assay type: physicochemical; conditions: octanol/water
THP-1 = experiment: Cytotoxicity against human THP1 cells; assay type: cell-based
[6] = Time dependent inhibition of CYP; assay type: ADME
fMet-Leu-Phe receptor [7] = target: T1, fMet-Leu-Phe receptor; experiment: Antagonist activity at human recombinant FPR1 in expressed in HEK293 cells assessed as inhibition of FMLP-stimulated intracellular calcium mobilisation after 1 hr by FLIPR assay; assay type: functional, cell-based
[8] = Fraction unbound in human plasma; assay type: ADME, cell-free
Cytochrome P450 2C19 = Cytochrome P450 2C19 (Homo sapiens, UniProt P33261); experiment: Inhibition of CYP2C19; assay type: ADME
Cytochrome P450 3A4 = Cytochrome P450 3A4 (Homo sapiens, UniProt P08684); experiment: Inhibition of CYP3A4; assay type: ADME
[9] = Thermodynamic solubility of compound by shake-flask technique; assay type: physicochemical; conditions: read-out: Therm_solubility
[10] = target: T3, fMet-Leu-Phe receptor (Homo sapiens) (UniProt P21462); experiment: Antagonist activity at human recombinant FPR1 in expressed in HEK293 cells assessed as inhibition of FMLP-stimulated intracellular calcium mobilisation at 30 uM after 1 hr by FLIPR assay; assay type: functional, cell-based
T3 sequence (whole entry): T1 sequence (P21462 whole entry)

Liver = experiment: Intrinsic clearance in rat liver microsomes assessed as media loss of parent compound per million cells
[11] = Intrinsic clearance in Sprague-Dawley rat hepatocytes assessed per 10^6 cells measured after 90 mins
[12] = Clearance in Sprague-Dawley rat at 2 mg/kg, iv; conditions: in vivo
[13] = Intrinsic clearance in human hepatocytes assessed per 10^6 cells measured after 90 mins
[14] = Half life in Sprague-Dawley rat at 2 mg/kg, iv; conditions: in vivo
[15] = Intrinsic clearance in human liver microsomes measured after 45 mins post NADPH addition

Sequence of Cytochrome P450 2D6 (P10635 whole entry): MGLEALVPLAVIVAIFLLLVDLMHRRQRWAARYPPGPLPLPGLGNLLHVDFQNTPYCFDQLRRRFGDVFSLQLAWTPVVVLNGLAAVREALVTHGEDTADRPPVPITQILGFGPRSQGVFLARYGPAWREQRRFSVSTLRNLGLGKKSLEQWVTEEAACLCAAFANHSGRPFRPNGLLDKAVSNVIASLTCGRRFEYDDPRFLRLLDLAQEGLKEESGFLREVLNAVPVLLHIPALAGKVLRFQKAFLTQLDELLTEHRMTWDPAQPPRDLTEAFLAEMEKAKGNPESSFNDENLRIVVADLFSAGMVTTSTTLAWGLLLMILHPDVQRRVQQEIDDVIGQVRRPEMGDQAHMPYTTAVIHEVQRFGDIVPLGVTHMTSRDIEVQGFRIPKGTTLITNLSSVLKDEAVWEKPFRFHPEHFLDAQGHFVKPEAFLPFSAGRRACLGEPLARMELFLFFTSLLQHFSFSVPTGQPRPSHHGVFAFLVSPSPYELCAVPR
Sequence of Cytochrome P450 2C9 (P11712 whole entry): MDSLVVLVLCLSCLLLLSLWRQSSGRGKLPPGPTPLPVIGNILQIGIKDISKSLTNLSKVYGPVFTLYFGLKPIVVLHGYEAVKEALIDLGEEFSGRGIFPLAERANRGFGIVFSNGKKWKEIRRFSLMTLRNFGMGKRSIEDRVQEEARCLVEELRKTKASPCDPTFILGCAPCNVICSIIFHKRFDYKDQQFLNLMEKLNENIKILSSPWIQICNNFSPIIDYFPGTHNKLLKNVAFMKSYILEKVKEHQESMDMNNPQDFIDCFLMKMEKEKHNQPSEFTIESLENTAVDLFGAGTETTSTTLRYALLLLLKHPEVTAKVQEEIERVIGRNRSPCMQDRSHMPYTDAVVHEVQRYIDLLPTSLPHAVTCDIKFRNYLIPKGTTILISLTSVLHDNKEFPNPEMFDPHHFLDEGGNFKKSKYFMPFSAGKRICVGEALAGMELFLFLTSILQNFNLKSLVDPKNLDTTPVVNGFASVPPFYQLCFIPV
Sequence of Cytochrome P450 2C19 (P33261 whole entry): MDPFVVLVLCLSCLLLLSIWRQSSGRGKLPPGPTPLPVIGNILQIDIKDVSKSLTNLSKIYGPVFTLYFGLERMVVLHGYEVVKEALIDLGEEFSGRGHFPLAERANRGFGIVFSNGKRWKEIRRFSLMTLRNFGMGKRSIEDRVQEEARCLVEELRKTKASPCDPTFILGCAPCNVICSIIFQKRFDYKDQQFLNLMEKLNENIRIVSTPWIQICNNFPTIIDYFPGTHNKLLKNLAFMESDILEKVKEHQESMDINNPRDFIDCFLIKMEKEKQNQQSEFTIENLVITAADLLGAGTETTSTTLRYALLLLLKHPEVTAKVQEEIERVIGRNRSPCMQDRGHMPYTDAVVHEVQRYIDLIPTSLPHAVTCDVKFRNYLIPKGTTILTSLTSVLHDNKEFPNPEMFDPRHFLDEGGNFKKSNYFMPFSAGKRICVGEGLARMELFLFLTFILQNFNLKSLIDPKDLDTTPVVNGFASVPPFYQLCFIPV
Sequence of Cytochrome P450 3A4 (P08684 whole entry): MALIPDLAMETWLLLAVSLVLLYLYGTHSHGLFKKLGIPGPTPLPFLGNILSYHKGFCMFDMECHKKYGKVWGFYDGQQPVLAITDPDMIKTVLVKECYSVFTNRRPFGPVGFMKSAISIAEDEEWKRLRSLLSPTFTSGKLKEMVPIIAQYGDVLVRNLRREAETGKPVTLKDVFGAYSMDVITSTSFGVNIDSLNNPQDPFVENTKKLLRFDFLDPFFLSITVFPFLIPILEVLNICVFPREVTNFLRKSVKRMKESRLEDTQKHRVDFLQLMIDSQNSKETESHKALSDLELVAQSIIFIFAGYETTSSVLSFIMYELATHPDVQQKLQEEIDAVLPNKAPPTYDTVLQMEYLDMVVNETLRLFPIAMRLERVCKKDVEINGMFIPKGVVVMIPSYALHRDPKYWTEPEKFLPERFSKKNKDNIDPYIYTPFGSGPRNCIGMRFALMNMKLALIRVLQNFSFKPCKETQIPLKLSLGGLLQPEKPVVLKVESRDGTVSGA

IC50 (fMet-Leu-Phe receptor [7]): 1000 nM
SMILES: Cc1ccc(S(=O)(=O)Nc2c(C(=O)N[C@@H](C)C(C)(C)C)c(C)nn2C2CCOC2)cc1 (stereo partly drawn)

inhibition [10]: < 30%
SMILES: CO[C@H]1CC[C@H](n2nc(C)c(C(=O)N[C@@H](C)C(C)(C)C)c2NS(=O)(=O)c2ccc(C)cc2)CC1

CLH (Liver): 12 µL/min | hepatocyte CLint at […] [11]: 8 µL/min/1e6 cells | IC50 (fMet-Leu-Phe receptor [7]): 79.4 nM
SMILES: Cc1ccc(S(=O)(=O)Nc2c(C(=O)N[C@@H](C)C(C)(C)C)c(C)nn2C2CCCC2)cc1

hepatocyte CLint at […] [11]: 17 µL/min/1e6 cells | IC50 (fMet-Leu-Phe receptor [7]): 200 nM
SMILES: Cc1ccc(S(=O)(=O)Nc2c(C(=O)N[C@@H](C)C(C)(C)C)c(C)nn2C2CCC2)cc1

IC50 (fMet-Leu-Phe receptor [7]): 10000 nM
SMILES: Cc1ccc(S(=O)(=O)Nc2c(C(=O)N[C@@H](C)C(C)(C)C)c(C)nn2C2CCS(=O)(=O)CC2)cc1

clearance [12]: 5.5 mL/min/kg | Kb (fMet-Leu-Phe receptor [1]): 20 nM | Vd [2]: 1.2 L/kg | bioavailability [3]: 80% | IC50 (Cytochrome P450 2C9): > 10000 nM | hepatocyte CLint at […] [13]: 3.6 µL/min/1e6 cells | fraction unbound [4]: 0.1 | IC50 (Cytochrome P450 1A2): > 10000 nM | half-life [14]: 2.8 h | IC50 (Cytochrome P450 2D6): > 10000 nM | logD [5]: 1.3 | hepatocyte CLint at […] [11]: 3 µL/min/1e6 cells | pIC50 [6]: < 5 | IC50 (fMet-Leu-Phe receptor [7]): 3.98 nM | fraction unbound [8]: 0.073 | IC50 (Cytochrome P450 2C19): > 10000 nM | IC50 (Cytochrome P450 3A4): > 10000 nM | microsomal CLint at 0.75 h [15]: 8 µL/min/mg
SMILES: CO[C@H]1CC[C@@H](n2nc(C)c(C(=O)N[C@@H](C)C(C)(C)C)c2NS(=O)(=O)c2ccc(C)cc2)CC1
IC50 (THP-1): > 50100 nM

Further lines, the compound ahead of its results:

SMILES: Cc1nn(C2CCOCC2)c(NS(=O)(=O)c2ccc(C3CC3)cc2)c1C(=O)N[C@@H](C)C(C)(C)C
Kb (fMet-Leu-Phe receptor [1]): 794 nM | Vd [2]: 0.5 L/kg | bioavailability [3]: 83% | IC50 (Cytochrome P450 2C9): > 10000 nM | fraction unbound [4]: 0.111 | IC50 (Cytochrome P450 1A2): > 10000 nM | IC50 (Cytochrome P450 2D6): > 10000 nM | logD [5]: 1.2 | IC50 (THP-1): > 50100 nM | pIC50 [6]: < 5 | IC50 (fMet-Leu-Phe receptor [7]): 158 nM | fraction unbound [8]: 0.075 | IC50 (Cytochrome P450 2C19): > 10000 nM | IC50 (Cytochrome P450 3A4): > 10000 nM | solubility thermodynamic [9]: > 2800 µM

SMILES: Cc1ccc(S(=O)(=O)Nc2c(C(=O)N[C@@H](C)C(C)(C)C)c(C)nn2C(C)C)cc1
clearance [12]: 4 mL/min/kg | fraction unbound [4]: 0.04 | CLH (Liver): 7.8 µL/min | hepatocyte CLint at […] [11]: < 6 µL/min/1e6 cells | IC50 (fMet-Leu-Phe receptor [7]): 1000 nM

SMILES: Cc1ccc(S(=O)(=O)Nc2c(C(=O)N[C@@H](C)C(C)(C)C)c(C)nn2CC(F)(F)F)cc1
CLH (Liver): 18 µL/min | hepatocyte CLint at […] [11]: 74 µL/min/1e6 cells | IC50 (fMet-Leu-Phe receptor [7]): 3160 nM

SMILES: CCC(CC)n1nc(C)c(C(=O)N[C@@H](C)C(C)(C)C)c1NS(=O)(=O)c1ccc(C)cc1
IC50 (fMet-Leu-Phe receptor [7]): 398 nM

SMILES: Cc1ccc(S(=O)(=O)Nc2c(C(=O)N[C@@H](C)C(C)(C)C)c(C)nn2C(C)(C)C)cc1
hepatocyte CLint at […] [11]: 53 µL/min/1e6 cells | IC50 (fMet-Leu-Phe receptor [7]): 1580 nM
